Measurements published in the OligoGym collection.
“And” between values parts separate entries of the source, which are not always exact repeats. Equal entries are not always repeated. After the bases stand the sugars from the 5' end (letter, count) and the backbone: PS all phosphorothioate, else s phosphorothioate and o phosphodiester by linkage. Methylation of C is not given here. e = 2'-O-(2-methoxyethyl) (MOE); d = 2'-deoxy (DNA)

Molecular target: DGAT2
Settings: ASO

Sequence	target mRNA inhibition (HepG2, 0.12 µM)	target mRNA inhibition (HepG2, 2.5 µM)	target mRNA inhibition (HepG2, 10 µM)	target mRNA inhibition (HepG2, 20 µM) [%]
GCCCAGTTTCGGACCCACTG (sugars e2 d13 e5, PS)	82%			
GCCCTCCTCGAAGATCACCT (sugars e5 d10 e5, PS)		37%	76%	
GCCTCGGTGTCCTCTCCTGT (sugars e5 d10 e5, PS)		59%	83%	
GCCTGGACAAGTCCTGCCCA (sugars e2 d13 e5, PS)	78%	44% and 45%	87%	55
GCCTGGACAAGTCCTGCCCA (sugars e3 d14 e3, PS)	84%	45% and 42%	89%	48
GCCTGGGAACTTCTTGCTCA (sugars e5 d10 e5, PS)	47%			
GCCTTGGGAAGTCTCTCATA (sugars e5 d10 e5, PS)		0%	58%	
GCTAAGCTTATTAGGTGTCT (sugars e5 d10 e5, PS)		75% and 73%	85% and 83%	
GCTAGGACACCTGGAGCTGC (sugars e5 d10 e5, PS)			95% and 80% and 96%	
GCTCAGAGACTCAGCCGCAC (sugars e5 d10 e5, PS)	86%	41%	60%	47
GCTGAGTCTGTGCTGCA (sugars e3 d10 e4, PS)		56%	85%	
GCTTCCTCCCACTTCAGTTT (sugars e5 d10 e5, PS)		55%	83%	
GCTTGTACACTTCATTCTCT (sugars e5 d10 e5, PS)		42%	85%	
GCTTGTCGAAGAGCTTCACC (sugars e5 d10 e5, PS)		25%	78%	
GGAACTTCTTCTGGACCCAT (sugars e5 d10 e5, PS)	36%			
GGACCCCGGAGTAGGCGGCT (sugars e5 d10 e5, PS)		30%	82%	
GGAGCCCTCACAGGGCCAGG (sugars e5 d10 e5, PS)	38%			
GGAGCTCAGAGACTCAGCCG (sugars e3 d14 e3, PS)	81%	17%	53%	25
GGAGTTTGTGTTTCCCATTT (sugars e5 d10 e5, PS)		81% and 72%	91% and 84%	
GGATGTGTCATTTCCCCTGG (sugars e5 d10 e5, PS)		66%	96%	
GGCACCAGCCCCCAGGTGTC (sugars e5 d10 e5, PS)	30%			
GGCATGCTTCCTCCCACTTC (sugars e5 d10 e5, PS)		67%	72%	

Sequence	target mRNA inhibition (HepG2, 0.12 µM)	target mRNA inhibition (HepG2, 2.5 µM)	target mRNA inhibition (HepG2, 10 µM)	target mRNA inhibition (HepG2, 20 µM) [%]
GGCATGGAGCTCAGAGACTC (sugars e2 d13 e5, PS)	77%			
GGCCCAGATTTAGCCACCAC (sugars e5 d10 e5, PS)		51%	79%	
GGCCCCAGGAGCCCTCCTCG (sugars e5 d10 e5, PS)	40%			
GGCTCAGTTCACCTCCAGGA (sugars e5 d10 e5, PS)		56%	90%	
GGCTTGGAGTAGGGCACCAG (sugars e5 d10 e5, PS)	56%			
GGGAAGGATACCGCCAATGA (sugars e5 d10 e5, PS)	57%			
GGGAAGGTAAACTGAGGCCA (sugars e5 d10 e5, PS)	32%			
GGGATGATAAACACTAAGGT (sugars e5 d10 e5, PS)	37%			
GGGTCCTCTCCGCTGCC (sugars e3 d10 e4, PS)		47%	69%	
GGTAAGGCCAAGGAAGTGAG (sugars e5 d10 e5, PS)		66%	80%	
GGTCAGCAGGTTGTGTGTCT (sugars e5 d10 e5, PS)	45% and 62%			
GGTCAGCCTCGGCCTGACGC (sugars e5 d10 e5, PS)	11%			
GGTTGTGTGTCTTCACCAGC (sugars e5 d10 e5, PS)	64% and 70%	0%		
GTAGCTGCTTTTCCACCTTG (sugars e5 d10 e5, PS)	43%			
GTAGGGCACCAGCCCCCAGG (sugars e5 d10 e5, PS)	23%			
GTCAAACCTAGGTTCAGACT (sugars e5 d10 e5, PS)		68%	87%	
GTCATCCAGTATAGCCTAAT (sugars e5 d10 e5, PS)	44%			
GTCCTGGAGGGCGGAGAGGA (sugars e5 d10 e5, PS)	32%			
GTCTCATTCATCTGGGCCCT (sugars e5 d10 e5, PS)		69%	86%	
GTGCTCTGTGGGCTCCT (sugars e3 d10 e4, PS)		55% and 70%	85% and 89%	
GTGGTGATGGGCTTGGAGTA (sugars e5 d10 e5, PS)	23%			
GTGTACTTTGAGCATCCCCA (sugars e5 d10 e5, PS)		63% and 62%	88% and 87%	

Sequence	target mRNA inhibition (HepG2, 0.12 µM)	target mRNA inhibition (HepG2, 2.5 µM)	target mRNA inhibition (HepG2, 10 µM)	target mRNA inhibition (HepG2, 20 µM) [%]
GTTCCAGTCAAACACCAGCC (sugars e5 d10 e5, PS)	31%			
GTTGGGCAGTCACCATTTGC (sugars e5 d10 e5, PS)		21%	58%	
GTTGTGTGTCTTCACCAGCT (sugars e3 d14 e3, PS)	56%			
GTTTCGGACCCACTGTGACC (sugars e2 d13 e5, PS)	70%			
GTTTCGGACCCACTGTGACC (sugars e3 d14 e3, PS)	71%			
TAAAGAGGCTGGGCCATAGA (sugars e5 d10 e5, PS)	21%			
TACAAAAGTCTGACATGGTG (sugars e5 d10 e5, PS)	40%			
TAGAAATACAATTCCTGGAT (sugars e5 d10 e5, PS)	71%			
TAGCATTGCCACTCCCATTC (sugars e3 d14 e3, PS)	68%			
TAGCCAGGTAAGGCCGTATG (sugars e5 d10 e5, PS)	56% and 60%			
TAGCCTGGCTTTGATAACCC (sugars e5 d10 e5, PS)	42%			
TAGCTCATGGTGGCGGCATC (sugars e5 d10 e5, PS)	35%			
TAGGGCACCAGCCCCCAGGT (sugars e5 d10 e5, PS)	32%			
TATTCATCTTTCCAGATCCG (sugars e5 d10 e5, PS)		66%	91%	
TATTCTAAAACTCAAATCCA (sugars e5 d10 e5, PS)		21%	75%	
TCACTGATGACATATCCCCA (sugars e5 d10 e5, PS)	52%			
TCAGGACCTCAGGGCTGGCC (sugars e5 d10 e5, PS)		64%	82%	
TCAGTTCACCTCCAGGACCT (sugars e5 d10 e5, PS)	46%			
TCATTCTCTCCAAAGGAGTA (sugars e5 d10 e5, PS)	18%			
TCATTTCATAGATGAGGAGA (sugars e5 d10 e5, PS)	34%			
TCCATGTCAGAGAGGCT (sugars e3 d10 e4, PS)		78% and 76%	65% and 89%	
TCCGCAGGGTGACTGCATTC (sugars e5 d10 e5, PS)	48%			

Sequence	target mRNA inhibition (HepG2, 0.12 µM)	target mRNA inhibition (HepG2, 2.5 µM)	target mRNA inhibition (HepG2, 10 µM)	target mRNA inhibition (HepG2, 20 µM) [%]
TCCGGTCAGCCTCGGCCTGA (sugars e5 d10 e5, PS)	20%			
TCCTCTCCTGTTTGATGGGT (sugars e5 d10 e5, PS)		83% and 90%	89% and 84%	
TCCTTTGAAATCCAATGCAC (sugars e5 d10 e5, PS)		75% and 63%	87% and 77%	
TCTCACATGCCTGAGGGCAG (sugars e5 d10 e5, PS)		70%	82%	
TCTGCGCGATTCACTGAGGA (sugars e5 d10 e5, PS)		64%	84%	
TGACCTTGGGATAGTCCCTC (sugars e5 d10 e5, PS)		93%	89%	
TGAGCTCTCAAGTCTTCCTC (sugars e5 d10 e5, PS)		55%	89%	
TGCACCATAATCTGCACAGG (sugars e5 d10 e5, PS)		75% and 71%	80% and 91%	
TGCAGCCTGGACAAGTCCTG (sugars e5 d10 e5, PS)	67%			
TGCCAATGCCTAGGTCA (sugars e3 d10 e4, PS)		82% and 74%	70% and 89%	
TGCCCTTGCTGTAGGACCCA (sugars e5 d10 e5, PS)		92% and 79%	88% and 95%	
TGCTGAGCTCATGAGAAGCT (sugars e5 d10 e5, PS)		75% and 57%	92% and 83%	
TGCTGGATCCAGTGCCCCAT (sugars e5 d10 e5, PS)	44%			
TGGACAAGTCATCTTCCAGC (sugars e5 d10 e5, PS)		52%	74%	
TGGACAAGTCCTGCCCATCT (sugars e2 d13 e5, PS)	51%			
TGGACAAGTCCTGCCCATCT (sugars e3 d14 e3, PS)	69%			
TGGAGCTCAGAGACTCAGCC (sugars e5 d10 e5, PS)	77%	19%	70%	46
TGGATACTCAGAAGAGCAGT (sugars e5 d10 e5, PS)	37%			
TGGCTGGGAGGAGTCCAGCA (sugars e5 d10 e5, PS)	10%			
TGGGAACAGCAGCATCAGCA (sugars e5 d10 e5, PS)		65%	80%	
TGGTATCCAAAGATATAGTT (sugars e5 d10 e5, PS)	42%			
TGGTCAGCAGGTTGTGTGTC (sugars e3 d14 e3, PS)	57%			
